Source: US8889878B2, “Haloalky-substituted amides as insecticides and acaricides” (Bayer CropScience AG, priority 2009, dated 2014)

Legend:
[1] = test system: armyworm (Spodoptera frugiperda); assay: Spodoptera frugiperda test (SPODFR spray treatment), Example 15; assay type: in vivo; details: maize leaf discs sprayed, after 7 days
Experimental: Spodoptera frugiperda Test (SPODFR Spray Treatment)
• Solvent: 78.0 parts by weight of acetone • 1.5 parts by weight of dimethylformamide • Emulsifier: 0.5 part by weight of alkylaryl polyglycol ether
To prepare an appropriate active ingredient formulation, 1 part by weight of active ingredient is mixed with the stated amounts of solvent and emulsifier, and the concentrate is diluted with emulsifier-containing water to the desired concentration. Leaf discs from maize (Zea mays) are sprayed with an active ingredient formulation of the desired concentration and, after drying, populated with caterpillars of the armyworm (Spodoptera frugiperda).
After 7 days, the efficacy in % is determined. 100% means that all caterpillars were killed; 0% means that no caterpillars were killed.

[2] = logP by HPLC on reverse-phase column (EEC Directive 79/831 Annex V.A8); assay type: physicochemical; details: for chromatographic logP: reverse-phase C18 HPLC column, pH 2.7, HPLC
Experimental: The logP values reported in the above Tables and Preparation Examples were determined according to EEC Directive 79/831 Annex V.A8 by HPLC (High Performance Liquid Chromatography) on a reverse-phase column (C18). Temperature 43° C.

[3] = HPLC, C18 reverse phase, 43° C., acidic range pH 2.7, calibration with alkan-2-ones
[4] = HPLC-MS, HPLC on reverse-phase column
[5] = C18 reverse phase, 43° C., acidic range pH 2.7, calibration with alkan-2-ones

| SMILES | efficacy in % ([1]; application rate 100 g/ha) [%] | logP ([2]; HPLC-MS) | further results |
| --- | --- | --- | --- |
| C#CC(C)(C)NC(=O)c1ccc(/C=C/C(=O)NC(c2cccc(C(F)(F)F)c2)C(F)(F)F)cc1Cl (racemic) [Ia-196] | 83 | HPLC-MS: logP = 3.64; mass |  |
| N#Cc1cc(/C=C/C(=O)NC(c2cc(Cl)ccc2Cl)C(F)(F)F)ccc1-n1cncn1 (stereo not drawn) [Ia-15] |  | HPLC-MS: logP = 3.19; mass | efficacy in % ([1]; application rate 500 g/ha): 83% |
| C=CCn1c(C(=O)NC(c2cccc(C(F)(F)F)c2)C(F)(F)F)cc2cc(C(=O)NC3CC3)c(Cl)cc21 (racemic) [Ic-29] | 100 |  | logP [2, 3]: HPLC-MS: logP = 3.86; mass |
| O=C(/C=C/c1ccc(CNS(=O)(=O)C2CC2)c(C(F)(F)F)c1)NC(c1cccc(C(F)(F)F)c1)C(F)(F)F (stereo not drawn) [Ia-271] | 100 |  | logP [2, 4]: HPLC-MS: logP = 3.74; mass |
| N#Cc1ccc(NC(=O)c2ccc(/C=C/C(=O)NC(c3cccc(C(F)(F)F)c3)C(F)(F)F)cc2Br)nc1 (racemic) [Ia-214] | 100 | HPLC-MS: logP = 3.75; mass |  |
| O=C(/C=C/c1ccc(C(=O)Nc2cnc(Br)cn2)c(C(F)(F)F)c1)NC(c1cccc(C(F)(F)F)c1)C(F)(F)F (stereo not drawn) [Ia-226] | 100 | HPLC-MS: logP = 4.15; mass |  |
| O=C(/C=C/c1ccc(C(=O)Nc2ncc(Cl)cn2)c(C(F)(F)F)c1)NC(c1cccc(C(F)(F)F)c1)C(F)(F)F (stereo not drawn) [Ia-137] | 100 | HPLC-MS: logP = 3.62; mass |  |
| CC(=O)NCc1ccc(/C=C/C(=O)NC(c2cccc(C(F)(F)F)c2)C(F)(F)F)cc1C(F)(F)F (stereo not drawn) [Ia-247] | 100 | HPLC-MS: logP = 3.24; mass |  |
| CCOCn1c(C(=O)NC(c2cccc(C(F)(F)F)c2)C(F)(F)F)cc2cc(C(=O)NC3CC3)c(Cl)cc21 (racemic) [Ic-27] | 100 |  | logP [2, 3]: HPLC-MS: logP = 3.81; mass |
| N#Cc1ccnc(NC(=O)c2ccc(/C=C/C(=O)NC(c3cccc(C(F)(F)F)c3)C(F)(F)F)cc2C(F)(F)F)c1 (stereo not drawn) [Ia-260] | 100 |  | logP [2, 4]: HPLC-MS: logP = 3.61; mass |
| CCC(=O)NC(C)c1ccc(/C=C/C(=O)NC(c2ccc(F)c(C(F)(F)F)c2)C(F)(F)F)cc1F (stereo not drawn) [Ia-275] | 100 |  | logP [2, 4]: HPLC-MS: logP = 3.38; mass |
| O=C(/C=C/c1ccc(C(=O)N(Cc2cccnc2)C2CC2)c(C(F)(F)F)c1)NC(c1cccc(C(F)(F)F)c1)C(F)(F)F (stereo not drawn) [Ia-258] | 100 | HPLC-MS: logP = 2.8; mass |  |
| CCN(C(=O)c1ccc(/C=C/C(=O)NC(c2cccc(C(F)(F)F)c2)C(F)(F)F)cc1C(F)(F)F)C1CC1 (stereo not drawn) [Ia-257] | 100 | HPLC-MS: logP = 3.89; mass |  |
| CC(NC(=O)c1ccc(/C=C/C(=O)NC(c2cccc([N+](=O)[O-])c2)C(F)(F)F)cc1C(F)(F)F)C(F)(F)F (stereo not drawn) [Ia-28] |  | HPLC-MS: logP = 3.83; mass | efficacy in % ([1]; application rate 500 g/ha): 83% |
| CCC(=O)NCc1ccc(/C=C/C(=O)NC(c2ccc(F)c(C(F)(F)F)c2)C(F)(F)F)cc1C(F)(F)F (stereo not drawn) [Ia-272] | 100 |  | logP [2, 4]: HPLC-MS: logP = 3.61; mass |
| O=C(/C=C/c1ccc(-n2cncn2)c(Cl)c1)NC(c1ccc(F)c(Cl)c1)C(F)(F)F (racemic) [Ia-209] | 83 | HPLC-MS: logP = 3.15; mass |  |
| N#Cc1ccc(NC(=O)c2ccc(/C=C/C(=O)NC(c3cccc(C(F)(F)F)c3)C(F)(F)F)cc2Cl)nc1 (racemic) [Ia-205] | 100 | HPLC-MS: logP = 3.72; mass |  |
| CC(=O)NCc1ccc(/C=C/C(=O)NC(c2cccc(C(F)(F)F)c2)C(F)(F)F)cc1Cl (stereo not drawn) [Ia-248] | 100 | HPLC-MS: logP = 3.06; mass |  |
| O=C(/C=C/c1ccc(C(=O)Nc2ncccc2Cl)c(Cl)c1)NC(c1cccc(C(F)(F)F)c1)C(F)(F)F (stereo not drawn) [Ia-183] | 83 | HPLC-MS: logP = 3.44; mass |  |
| O=C(/C=C/c1ccc(C(=O)NCc2ccccn2)cc1)NC(c1cccc(C(F)(F)F)c1)C(F)(F)F (stereo not drawn) [Ia-7] |  | HPLC-MS: logP = 2.45; mass | efficacy in % ([1]; application rate 500 g/ha): 83% |
| CC(NC(=O)CC1CC1)c1ccc(/C=C/C(=O)NC(c2cccc(C(F)(F)F)c2)C(F)(F)F)nc1 (stereo not drawn) [If-3] | 100 |  |  |
| CC1CC1NC(=O)c1ccc(C=CC(=O)NC(c2cccc(C(F)(F)F)c2)C(F)(F)F)cc1C(F)(F)F (stereo not drawn) [Ia-261] |  |  | logP [2, 4]: HPLC-MS: logP = 3.46; mass |
| O=C(/C=C/c1ccc(C(=O)Nc2cccnc2)c(C(F)(F)F)c1)NC(c1cccc(C(F)(F)F)c1)C(F)(F)F (stereo not drawn) [Ia-53] |  | HPLC-MS: logP = 2.76; mass |  |

| SMILES | efficacy in % ([1]; application rate 100 g/ha) [%] | logP ([2]; HPLC-MS) | further results |
| --- | --- | --- | --- |
| CC(C)(C)OC(=O)NC1CCc2cc(/C=C/C(=O)NC(c3cccc(C(F)(F)F)c3)C(F)(F)F)ccc21 (stereo not drawn) [tert-Butyl {5-[(1E)-3-oxo-3-({2,2,2-trifluoro-1-[3-(trifluoromethyl)phenyl]ethyl}amino)prop-1-en-1-yl]-2,3-dihydro-1H-inden-1-yl}carbamate] |  |  | chromatographic logP [2, 5]: 4.44 |
| CC(CF)NC(=O)c1ccc(/C=C/C(=O)NC(c2cccc(C(F)(F)F)c2)C(F)(F)F)cc1Br (stereo not drawn) [Ia-173] |  | HPLC-MS: logP = 3.35; mass |  |
| Cc1cc(/C=C/C(=O)O)ccc1C(=O)NC1CC1 [(2E)-3-[4-(Cyclopropylcarbamoyl)-3-methylphenyl]acrylic acid] |  |  | chromatographic logP [2, 5]: 1.14 |
| CCC(=O)NCc1ccc(/C=C/C(=O)NC(c2cccc(C(F)(F)F)c2)C(F)(F)F)cc1C(F)(F)F (stereo not drawn) [Ia-238] |  | HPLC-MS: logP = 3.51; mass |  |
| CCC(=O)NCc1ccc(/C=C/C(=O)NC(c2cccc(C(F)(F)F)c2)C(F)(F)F)cc1 (stereo not drawn) [Ia-241] |  | HPLC-MS: logP = 2.8; mass |  |
| Cc1cc(/C=C/C(=O)NC(c2cccc(C(F)(F)F)c2)C(F)(F)F)ccc1C(=O)N(C)C1CC1 (stereo not drawn) [Ia-116] |  | HPLC-MS: logP = 3.37 mass |  |
| CS(=O)(=O)c1cccc(C(NC(=O)/C=C/c2ccc(C(=O)Nc3ccccn3)c(C(F)(F)F)c2)C(F)(F)F)c1 (stereo not drawn) [Ia-244] |  | HPLC-MS: logP = 2.62; mass |  |
| O=C(/C=C/c1cccc([N+](=O)[O-])c1)NC(c1cccc(C(F)(F)F)c1)C(F)(F)F (stereo not drawn) [(2E)-3-(3-Nitrophenyl)-N-{2,2,2-trifluoro-1-[3-(trifluoromethyl)phenyl]ethyl}acrylamide] |  |  | chromatographic logP [2, 5]: 3.81 |
| CCC(=O)NCc1ccc2oc(C(=O)NC(c3cccc(C(F)(F)F)c3)C(F)(F)F)cc2c1 (stereo not drawn) [Ic-14] |  |  | logP [2, 3]: HPLC-MS: logP = 3.09; mass |
| O=C(/C=C/c1ccc(NC(=O)CC(F)(F)F)cc1)NC(c1cccc(C(F)(F)F)c1)C(F)(F)F (stereo not drawn) [Ia-6] |  | HPLC-MS: logP = 3.43; mass |  |
| C=CCC(=O)NCc1ccc2oc(C(=O)NC(c3cccc(C(F)(F)F)c3)C(F)(F)F)cc2c1 (stereo not drawn) [Ic-13] |  |  | logP [2, 3]: HPLC-MS: logP = 3.24; mass |
| NCc1ccc(Br)cc1C(F)(F)F [1-[4-Bromo-2-(trifluoromethyl)phenyl]methanamine] |  |  | chromatographic logP [2, 5]: 0.92 |
| Cn1ccc(CNC(=O)c2ccc(/C=C/C(=O)NC(c3cccc(C(F)(F)F)c3)C(F)(F)F)cc2Cl)n1 (stereo not drawn) [Ia-186] |  | HPLC-MS: logP = 2.95; mass |  |
| CC(F)(F)C(=O)c1cccc(C(F)(F)F)c1 [2,2-Difluoro-1-[3-(trifluoromethyl)phenyl]propan-1-one] |  |  | chromatographic logP [2, 5]: 3.61 |
| N#Cc1cc(/C=C/C(=O)O)ccc1-n1cncn1 [(2E)-3-[3-Cyano-4-(1H-1,2,4-triazol-1-yl)phenyl]acrylic acid] |  |  | chromatographic logP [2, 5]: 0.97 |
| O=C(NC1CC1)c1ccc(I)cc1Cl [2-Chloro-N-cyclopropyl-4-iodobenzamide] |  |  | chromatographic logP [2, 5]: 2.13 |
| O=C(/C=C/c1ccc(C(=O)NCc2ccccn2)c(C(F)(F)F)c1)NC(c1cccc([N+](=O)[O-])c1)C(F)(F)F (stereo not drawn) [Ia-33] |  | HPLC-MS: logP = 2.93; mass |  |
| N#Cc1ccc2cc(C(=O)NC(c3cccc(C(F)(F)F)c3)C(F)(F)F)oc2c1 (stereo not drawn) [Ic-3] |  |  | logP [2, 3]: HPLC-MS: logP = 3.72; mass |
| Cc1cccc(C(NC(=O)/C=C/c2ccc(C(=O)NC3CC3)c(C(F)(F)F)c2)C(F)(F)F)c1 (stereo not drawn) [Ia-232] |  | HPLC-MS: logP = 3.17; mass |  |
| O=C(/C=C/c1ccc(C(=O)NCc2ccc(F)cn2)c(Cl)c1)NC(c1cccc(C(F)(F)F)c1)C(F)(F)F (stereo not drawn) [Ia-236] |  | HPLC-MS: logP = 3.15; mass |  |
| N#Cc1ccc2cc(C(=O)NC(c3cccc(C(F)(F)F)c3)C(F)(F)F)[nH]c2c1 (stereo not drawn) [Ic-8] |  |  | logP [2, 3]: HPLC-MS: logP = 3.51; mass |
| NC1CCc2cc(/C=C/C(=O)NC(c3cccc(C(F)(F)F)c3)C(F)(F)F)ccc21 (stereo not drawn) [(2E)-3-(1-Amino-2,3-dihydro-1H-inden-5-yl)-N-{2,2,2-trifluoro-1-[3-(trifluoromethyl)phenyl]-ethyl}acrylamide] |  |  | chromatographic logP [2, 5]: 1.7 |
| O=C(/C=C/c1ccc(C(=O)NC2CC2)c(C(F)(F)F)c1)NC(c1cccc(Cl)c1)C(F)F (stereo not drawn) [Id-3] |  |  | logP [2, 3]: HPLC-MS: logP = 2.92; mass |
